Measurements: patent EP0187355A1, “Process for preparing beta-lactam antibiotics” (E.R. Squibb & Sons, Inc., priority 1981, dated 1982)
Counter-ions that a name gives are not always drawn. Like-named read-outs stand apart in the source and are kept apart here.

Tests used:
Test in all cases: MIC, agar dilution
Type in all cases: cell-based
[1] = system: Acinetobacter calcoaceticus, 8333; conditions: Acinetobacter calcoaceticus, 8333, 18 h, K-10 agar, 10^4 CFU, 37°C
Description: (§1) The following methodology is used to determine the minimum inhibitory concentration (hereinafter referred to as MIC) of the […] of this invention.
(§2) The test organisms are grown in approximately 15-20 ml of Antibiotic Assay broth (Difco) by inoculating (in tubes) the broth with a loopful of the organism from a BHI (Difco) agar slant. The inoculated tubes are incubated at 37°C for 18 to 20 hours. These cultures are assumed to contain 10^9 colony forming units (hereinafter CFU) per milliliter. The cultures are diluted 1:100 to give a final inoculum level of 10^4 CFU; dilutions are made with K-10 broth^*.
(§3) The compounds are dissolved in the appropriate diluent at a concentration of 1000 µg/ml. Twofold dilutions are made in K-10 broth resulting in a range from 1000 µg/ml to 0.5 µg/ml. 1.5 ml of each dilution is placed into individual square petri dishes to which 13.5 ml of K-10 agar^** is added. The final drug concentration in the agar ranges from 100 µg/ml to 0.05 µg/ml. Organism growth control plates containing agar only are prepared and inoculated before and after the test plates. The organisms are applied to the agar surface of each plate with the Denley Multipoint Inoculator (which delivers approximately 0.001 ml of each organism) resulting in a final inoculum level of 10^4 CFU on the agar surface.
(§4) The plates are incubated at 37 °C for 18 hours and the MIC's are determined. The MIC is the lowest concentration of compound inhibiting growth of the organism.
(§5) The tables that follow are tabulated results obtained when the B-lactams of this invention are tested against various organisms. The number following each organism refers to the number of the organism in the collection of E. R. Squibb & Sons,.Inc., Princeton, New Jersey. […] The symbol "N.T." means not tested.

[2] = system: Citrobacter freundii, 9518; conditions: K-10 agar, 10^4 CFU, 37°C
Description: as §1, §2, §3, §4, §5

[3] = system: Enterobacter aerogenes, 10078; conditions: Klebsiella aerogenes, 10078, 18 h
Description: as §1, §2, §3, §4, §5

Escherichia coli, 10857 = conditions: Escherichia coli, 10857, 18 h, K-10 agar, 10^4 CFU, 37°C
Description: as §1, §2, §3, §4, §5

Escherichia coli, 10896 = conditions: K-10 agar, 10^4 CFU, 37°C, 18 hours
Description: as §1, §2, §3, §4, §5

Escherichia coli, 10909 = conditions: K-10 agar, 10^4 CFU, 37°C, 18 hours
Description: as §1, §2, §3, §4, §5

Escherichia coli, 8294 = conditions: Escherichia coli, 8294, 18 h, K-10 agar, 10^4 CFU, 37°C
Description: as §1, §2, §3, §4, §5

[4] = system: Klebsiella aerogenes, 10440; conditions: K-10 agar, 10^4 CFU, 37°C
Description: as §1, §2, §3, §4, §5

[5] = system: Klebsiella pneumoniae, 9527; conditions: Klebsiella pneumoniae, 9527, 18 h, K-10 agar, 10^4 CFU, 37°C
Description: as §1, §2, §3, §4, §5

Proteus mirabilis, 3855 = conditions: Proteus mirabilis, 3855, 18 h, K-10 agar, 10^4 CFU, 37°C
Description: as §1, §2, §3, §4, §5

Proteus rettgeri, 8479 = conditions: K-10 agar, 10^4 CFU, 37°C
Description: as §1, §2, §3, §4, §5

Proteus vulgaris, 9416 = conditions: K-10 agar, 10^4 CFU, 37°C
Description: as §1, §2, §3, §4, §5

[6] = system: Pseudomonas aeruginosa, 8329; conditions: K-10 agar, 10^4 CFU, 37°C
Description: as §1, §2, §3, §4, §5

[7] = system: Pseudomonas aeruginosa, 9545; conditions: Pseudomonas aeruginosa, 9545, 18 h, K-10 agar, 10^4 CFU, 37°C
Description: as §1, §2, §3, §4, §5

Salmonella typhosa, 1195 = conditions: Salmonella enterica, TYPHOSA, 18 h, K-10 agar, 10^4 CFU, 37°C
Description: as §1, §2, §3, §4, §5

[8] = system: Serratia marcescens, 9783; conditions: Serratia marcescens, 9783, 18 h, K-10 agar, 10^4 CFU, 37°C
Description: as §1, §2, §3, §4, §5

Shigella sonnei, 8449 = conditions: Shigella sonnei, 8449, 18 h, K-10 agar, 10^4 CFU, 37°C
Description: as §1, §2, §3, §4, §5

[9] = system: Staphylococcus aureus, 10165
Description: as §1, §2, §3, §4, §5

[10] = system: Staphylococcus aureus, 1276
Description: as §1, §2, §3, §4, §5

[11] = system: Staphylococcus aureus, 2399; conditions: Staphylococcus aureus, 2399, 18 h
Description: as §1, §2, §3, §4, §5

[12] = system: Staphylococcus aureus, 2400
Description: as §1, §2, §3, §4, §5

[13] = system: Streptococcus faecalis, 9011
Description: as §1, §2, §3, §4, §5

[14] = system: Streptococcus agalactiae, 9287; conditions: Streptococcus agalactiae, 9287, 18 h, K-10 agar, 10^4 CFU, 37°C
Description: as §1, §2, §3
(§6) The MIC is the lowest concentration of compound inhibiting growth of the organism.
(§7) The number following each organism refers to the number of the organism in the collection of E. R. Squibb & Sons,.Inc., Princeton, New Jersey. […] The symbol "N.T." means not tested.

[15] = system: Enterobacter cloacae, 8236; conditions: Enterobacter cloacae, 8236, 18 h, K-10 agar, 10^4 CFU, 37°C
Description: as §1, §2, §3, §6, §7

Micrococcus luteus, 2495 = conditions: Micrococcus luteus, 2495, 18 h, K-10 agar, 10^4 CFU, 37°C, read-out: M.I.C.
Description: as §1, §2, §3, §6, §7

**Q.** With `CC1C(NC(=O)C(=NOC(C)(C)C(=O)O)c2csc(N)n2)C(=O)N1S(=O)(=O)O` (stereo not drawn) [Example 6, [3S-[3α (Z) ,4β]]3-[[(2-Amino-4-thiazolyl) [[1-carboxy-1-methylethoxy)imino]acetyl)amino)-4-methyl-2-oxo-1-azetidinesulfonic acid, dipotassium salt] as the compound, how does the MIC [1] read?
**A.** 100 µg/mL

**Q.** And the MIC ([2]; Citrobacter freundii, 9518, 18 h)?
**A.** 0.4 µg/mL

**Q.** What about the MIC [3] of the same compound?
**A.** 0.4 µg/mL

**Q.** What about the MIC (Escherichia coli, 10857) of the same compound?
**A.** < 0.05 µg/mL

**Q.** And the MIC (Escherichia coli, 10896)?
**A.** 0.2 µg/mL

**Q.** And the MIC (Escherichia coli, 10909)?
**A.** < 0.05 µg/mL

**Q.** What about the MIC (Escherichia coli, 8294) of the same compound?
**A.** 0.4 µg/mL

**Q.** What about the MIC ([4]; Klebsiella aerogenes, 10440, 18 h) of the same compound?
**A.** 0.4 µg/mL

**Q.** And the MIC [5]?
**A.** < 0.05 µg/mL

**Q.** What about the MIC (Proteus mirabilis, 3855) of the same compound?
**A.** < 0.05 µg/mL

**Q.** And the MIC (Proteus rettgeri, 8479; Providencia rettgeri, 8479, 18 h)?
**A.** < 0.05 µg/mL

**Q.** And the MIC (Proteus vulgaris, 9416; Proteus vulgaris, 9416, 18 h)?
**A.** < 0.05 µg/mL

**Q.** And the MIC ([6]; Pseudomonas aeruginosa, 8329, 18 h)?
**A.** 3.1 µg/mL

**Q.** What about the MIC [7] of the same compound?
**A.** 0.8 µg/mL

**Q.** And the MIC (Salmonella typhosa, 1195)?
**A.** < 0.05 µg/mL

**Q.** What about the MIC [8] of the same compound?
**A.** 0.2 µg/mL

**Q.** What about the MIC (Shigella sonnei, 8449) of the same compound?
**A.** 0.2 µg/mL

**Q.** And the MIC ([9]; Staphylococcus aureus, 10165, 18 h)?
**A.** > 100 µg/mL

**Q.** What about the MIC ([10]; Staphylococcus aureus, 1276, 18 h) of the same compound?
**A.** > 100 µg/mL

**Q.** And the MIC [11]?
**A.** > 100 µg/mL

**Q.** What about the MIC ([12]; Staphylococcus aureus, 2400, 18 h) of the same compound?
**A.** > 100 µg/mL

**Q.** What about the MIC ([13]; Enterococcus faecalis, 9011, 18 h) of the same compound?
**A.** > 100 µg/mL

**Q.** And the MIC [14]?
**A.** 50 µg/mL

**Q.** How did the MIC ([1]; read-out: M.I.C.) turn out when `CC1C(NC(=O)C(=NO)c2csc(N)n2)C(=O)N1S(=O)(=O)O` (stereo not drawn) [Example 13, [3S-[3α(Z),4β]]-3-[[(2-amino-4-thiazolyl)-(hydroxyimino)acetyl]amino]-4-methyl-2-oxo-1-azetidinesulfonic acid, potassium salt] was run?
**A.** 12.5 µg/mL

**Q.** And the MIC ([2]; 18 hours, read-out: M.I.C.)?
**A.** 0.8 µg/mL

**Q.** And the MIC ([3]; Enterobacter aerogenes, 10078, K-10 agar, 10^4 CFU, 37°C, 18 hours, read-out: M.I.C.)?
**A.** 3.1 µg/mL

**Q.** What about the MIC (Escherichia coli, 10857) of the same compound?
**A.** 1.6 µg/mL

**Q.** What about the MIC (Escherichia coli, 10896) of the same compound?
**A.** 1.6 µg/mL

**Q.** And the MIC (Escherichia coli, 10909)?
**A.** 0.8 µg/mL

**Q.** What about the MIC (Escherichia coli, 8294) of the same compound?
**A.** 1.6 µg/mL

**Q.** And the MIC ([4]; 18 hours, read-out: M.I.C.)?
**A.** 1.6 µg/mL

**Q.** And the MIC ([5]; read-out: M.I.C.)?
**A.** 1.6 µg/mL

**Q.** And the MIC (Proteus mirabilis, 3855; read-out: M.I.C.)?
**A.** 1.6 µg/mL

**Q.** What about the MIC (Proteus rettgeri, 8479; Providencia rettgeri, 18 hours, read-out: M.I.C.) of the same compound?
**A.** 0.1 µg/mL

**Q.** What about the MIC (Proteus vulgaris, 9416; 18 hours, read-out: M.I.C.) of the same compound?
**A.** 0.8 µg/mL

**Q.** What about the MIC ([6]; 18 hours, read-out: M.I.C.) of the same compound?
**A.** > 100 µg/mL

**Q.** And the MIC ([7]; read-out: M.I.C.)?
**A.** 6.3 µg/mL

**Q.** What about the MIC (Salmonella typhosa, 1195) of the same compound?
**A.** 0.8 µg/mL

**Q.** And the MIC ([8]; read-out: M.I.C.)?
**A.** 0.8 µg/mL

**Q.** What about the MIC (Shigella sonnei, 8449) of the same compound?
**A.** 1.6 µg/mL

**Q.** What about the MIC ([9]; Staphylococcus aureus, 10165, K-10 agar, 10^4 CFU, 37°C, 18 hours, read-out: M.I.C.) of the same compound?
**A.** 25 µg/mL

**Q.** And the MIC ([10]; Staphylococcus aureus, 1276, K-10 agar, 10^4 CFU, 37°C, 18 hours, read-out: M.I.C.)?
**A.** 25 µg/mL

**Q.** What about the MIC ([12]; Staphylococcus aureus, 2400, K-10 agar, 10^4 CFU, 37°C, 18 hours, read-out: M.I.C.) of the same compound?
**A.** 12.5 µg/mL

**Q.** And the MIC ([13]; Enterococcus faecalis, Streptococcus faecalis, 9011, K-10 agar, 10^4 CFU, 37°C, 18 hours, read-out: M.I.C.)?
**A.** > 100 µg/mL

**Q.** And the MIC [15]?
**A.** 1.6 µg/mL

**Q.** And the MIC (Micrococcus luteus, 2495)?
**A.** 3.1 µg/mL

**Q.** What about the MIC ([14]; read-out: M.I.C.) of the same compound?
**A.** 25 µg/mL
